Positions count from the first letter of the chain named. Like-named read-outs stand apart in the source and are kept apart here.
How the values were obtained:
M1 receptor = target: T1, M1 receptor (Rattus norvegicus, UniProt P08482); test: M1 PAM assay (FLIPR intracellular calcium), rat; assay type: cell-based
T1 construct: expressed in transfected cells
T1 sequence (P08482 1-460): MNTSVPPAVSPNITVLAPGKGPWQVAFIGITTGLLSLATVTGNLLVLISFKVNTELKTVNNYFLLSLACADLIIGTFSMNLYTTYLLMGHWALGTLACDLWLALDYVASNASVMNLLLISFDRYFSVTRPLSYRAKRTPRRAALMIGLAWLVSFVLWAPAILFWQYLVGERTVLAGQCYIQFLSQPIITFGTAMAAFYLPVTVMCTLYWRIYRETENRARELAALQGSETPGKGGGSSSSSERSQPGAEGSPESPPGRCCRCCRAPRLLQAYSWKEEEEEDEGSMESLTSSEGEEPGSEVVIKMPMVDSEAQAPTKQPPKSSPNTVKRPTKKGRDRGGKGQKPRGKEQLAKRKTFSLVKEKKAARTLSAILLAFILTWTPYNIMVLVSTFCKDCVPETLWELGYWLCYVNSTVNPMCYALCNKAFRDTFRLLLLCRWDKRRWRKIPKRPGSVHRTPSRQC

human M1 = target: T2, human M1 (Homo sapiens, UniProt P11229); test: M1 PAM assay (FLIPR intracellular calcium, CHO human M1); assay type: cell-based
T2 construct: expressed in transfected cells; host or cells: CHO cells
T2 sequence (P11229 1-460): T1 sequence (P08482 1-460) with V5A, S254T, S309P, K320R, G337A, V413I
Description: The assay study the effect of several concentrations of test compounds on basal or acetylcholine-stimulated Ca^2+ levels using FLIPR. CHO human M1 are plated the day before the experiments at 2×10^5 cells/ml in PDL BioCoat 96 well black/clear plate (Becton 35 4640). The cells are grown at 37° C. and 5% CO2 in the following medium: F12 Nut Mix (Gibco 21765), 10% FCS heat inactivated (GIBCO 16000-044), 1% Pen Strep (Gibco, 15140) and 200 μg/ml Geneticin (Gibco 11811). On the day of the experiment, the medium was removed and replaced by 100 μl of dye loading buffer containing Hanks Balanced Salt solution (HBSS, 14065-049, Gibco) with 20 mM HEPES (Gibco 15630-056), 2 mM Probenicid (Sigma P8761), […] (Molecular Probes F-14202), 10% Pluronic acid Molecular Probes P-3000) pH=7.4 and incubated at 37° C. After 60 minutes extracellular dye was removed and the cells were washed five times with FLIPR buffer containing HBSS (Gibco 14065-049) with 20 mM HEPES (Gibco, 15630-056), 2 mM Probenicid (Sigma P8761) pre-warmed at 37° C. using and Ebml cell washer leaving 100 μl of FLIPR buffer in each well. The cell plate and the diluted compounds (1% DMSO final concentration) are placed on the platform of the FLIPR and the door closed. A signal test to check background fluorescence and basal fluorescence signal is performed. Laser intensity is adjusted if necessary. Two minutes preincubation with the diluted test compounds is provide to determine any agonist activity on the M1 receptor by comparison to 30 nM Acetylcholine control. In order to determine any modulator activity the diluted compounds were added to cells and after two minutes preincubation, the EC20 of acetylcholine is added followed by another two minutes preincubation before the measurement of intracellular Ca^2+ with a FLIPR (Molecular Devices).

[1] = rat, modulator activity with EC20 of acetylcholine, FLIPR Ca2+, read-out: EC50 rat PAM
[2] = human M1 in CHO cells, modulator activity with EC20 of acetylcholine, FLIPR Ca2+, read-out: EC50 h PAM

Compound	EC50 (M1 receptor; [1]) [nM]	EC50 (human M1; [2]) [nM]	EC50 (M1 receptor) [nM]	EC50 (human M1) [nM]
Cn1cc(-c2ccc(Cn3cc(C(=O)N[C@H]4CCCC[C@@H]4F)c4ncccc43)c(F)c2)cn1 (racemic) [Example 58, 1-(2-fluoro-4-(1-methyl-1H-pyrazol-4-yl)benzyl)-N-((1SR,2SR)-2-fluorocyclohexyl)-1H-pyrrolo[3,2-b]pyridine-3-carboxamide]	453	239		
Cn1cc(-c2ccc(Cn3cc(C(=O)N[C@H]4CCOC[C@@H]4O)c4ncccc43)c(F)c2)cn1 (single isomer, unassigned) [Example 59, 1-[[2-fluoro-4-(1-methylpyrazol-4-yl)phenyl]methyl]-N-[(3R,4S) or (3S,4R)-3-hydroxyoxan-4-yl]pyrrolo[3,2-b]pyridine-3-carboxamide]			18	15.5
NC(=O)c1ccc(Cn2cc(C(=O)N[C@@H]3CCOC[C@H]3O)c3ncccc32)cc1 (stereo in doubt) [Example 63a, 1-(4-Carbamoylbenzyl)-N-((3S,4R)-3-hydroxytetrahydro-2H-pyran-4-yl)-1H-pyrrolo[3,2-b]pyridine-3-carboxamide]			661	289
NC(=O)c1ccc(Cn2cc(C(=O)N[C@H]3CCOC[C@@H]3O)c3ncccc32)cc1 (stereo in doubt) [Example 63b, 1-(4-carbamoylbenzyl)-N-((3R,4S)-3-hydroxytetrahydro-2H-pyran-4-yl)-1H-pyrrolo[3,2-b]pyridine-3-carboxamide]			47	13
O=C(N[C@H]1CCCC[C@@H]1O)c1cn(Cc2cc(Br)ccc2F)c2cccnc12 [Example 1, 1-(5-bromo-2-fluorobenzyl)-N-((1S,2S)-2-hydroxycyclohexyl)-1H-pyrrolo[3,2b]pyridine-3-carboxamide]			1950	545
Cn1cc(-c2ccc(Cn3cc(C(=O)N[C@H]4CCCC[C@@H]4O)c4ncccc43)c(F)c2)cn1 [Example 2, 1-(2-fluoro-4-(1-methyl-1H-pyrazol-4-yl)benzyl)-N-((1S,2S)-2-hydroxycyclohexyl)-1H-pyrrolo[3,2-b]pyridine-3-carboxamide]	34.7	9.86		
Cn1cc(-c2ccc(Cn3cc(C(=O)N[C@@H]4CCCC[C@H]4O)c4ncccc43)c(F)c2)cn1 [Example 3, 1-(2-fluoro-4-(1-methyl-1H-pyrazol-4-yl)benzyl)-N-((1R,2R)-2-hydroxycyclohexyl)-1H-pyrrolo[3,2-b]pyridine-3-carboxamide]			131	101
O=C(N[C@H]1CCCC[C@@H]1O)c1cn(Cc2ccc(Cl)nc2)c2cccnc12 [Example 5, 1-((6-chloropyridin-3-yl)methyl)-N-((1S,2S)-2-hydroxycyclohexyl)-1H-pyrrolo[3,2-b]pyridine-3-carboxamide]			2320	489
Cn1cc(-c2ccc(Cn3nc(C(=O)N[C@H]4CCCC[C@@H]4O)c4ncccc43)c(F)c2)cn1 [Example 6, 1-(2-fluoro-4-(1-methyl-1H-pyrazol-4-yl)benzyl)-N-((1S,2S)-2-hydroxycyclohexyl)-1H-pyrazolo[4,3-b]pyridine-3-carboxamide]	71.5	25.3		
C[C@@H](CO)NC(=O)c1cn(Cc2ccc(-c3cnn(C)c3)cc2F)c2cccnc12 [Example 8, 1-[2-Fluoro-4-(1-methyl-1H-pyrazol-4-yl)-benzyl]-1H-pyrrolo[3,2-b]pyridine-3-carboxylic acid ((S)-2-hydroxy-1-methyl-ethyl)-amide]			695	248
Cn1cc(-c2ccc(Cn3cc(C(=O)NCC(C)(C)O)c4ncccc43)c(F)c2)cn1 [Example 11, 1-[2-Fluoro-4-(1-methyl-1H-pyrazol-4-yl)-benzyl]-1H-pyrrolo[3,2-b]pyridine-3-carboxylic acid (2-hydroxy-2-methyl-propyl)-amide]			616	317
CC[C@@H](CO)NC(=O)c1cn(Cc2ccc(-c3cnn(C)c3)cc2F)c2cccnc12 [Example 12, 1-[2-Fluoro-4-(1-methyl-1H-pyrazol-4-yl)-benzyl]-1H-pyrrolo[3,2-b]pyridine-3-carboxylic acid ((S)-1-hydroxymethyl-propyl)-amide]			244	129
CCC(CO)NC(=O)c1cn(Cc2ccc(-c3cnn(C)c3)cc2F)c2cccnc12 (stereo not drawn) [Example 13, 1-[2-Fluoro-4-(1-methyl-1H-pyrazol-4-yl)-benzyl]-1H-pyrrolo[3,2-b]pyridine-3-carboxylic acid (1-hydroxymethyl-propyl)-amide]			632	195
CCC(O)CNC(=O)c1cn(Cc2ccc(-c3cnn(C)c3)cc2F)c2cccnc12 (stereo not drawn) [Example 14, 1-[2-Fluoro-4-(1-methyl-1H-pyrazol-4-yl)-benzyl]-1H-pyrrolo[3,2-b]pyridine-3-carboxylic acid (2-hydroxy-butyl)-amide]	155	100		
Cn1cc(-c2ccc(Cn3cc(C(=O)N[C@H]4CCC[C@@H]4O)c4ncccc43)c(F)c2)cn1 [Example 17, 1-[2-Fluoro-4-(1-methyl-1H-pyrazol-4-yl)-benzyl]-1H-pyrrolo[3,2-b]pyridine-3-carboxylic acid ((1S,2S)-2-hydroxy-cyclopentyl)-amide]			272	64.9
Cn1cc(-c2ccc(Cn3cc(C(=O)N[C@H]4CCC[C@H]4O)c4ncccc43)c(F)c2)cn1 [Example 18, 1-[2-Fluoro-4-(1-methyl-1H-pyrazol-4-yl)-benzyl]-1H-pyrrolo[3,2-b]pyridine-3-carboxylic acid ((1S,2R)-2-hydroxy-cyclopentyl)-amide]			195	96
CC(C)[C@@H](CO)NC(=O)c1cn(Cc2ccc(-c3cnn(C)c3)cc2F)c2cccnc12 [Example 19, 1-[2-Fluoro-4-(1-methyl-1H-pyrazol-4-yl)-benzyl]-1H-pyrrolo[3,2-b]pyridine-3-carboxylic acid ((S)-1-hydroxymethyl-2-methyl-propyl)-amide]			285	178
CCCC(CO)NC(=O)c1cn(Cc2ccc(-c3cnn(C)c3)cc2F)c2cccnc12 (stereo not drawn) [Example 20, 1-[2-Fluoro-4-(1-methyl-1H-pyrazol-4-yl)-benzyl]-1H-pyrrolo[3,2-b]pyridine-3-carboxylic acid (1-hydroxymethyl-butyl)-amide]			499	199
CC(C)C(CO)NC(=O)c1cn(Cc2ccc(-c3cnn(C)c3)cc2F)c2cccnc12 (stereo not drawn) [Example 22, 1-[2-Fluoro-4-(1-methyl-1H-pyrazol-4-yl)-benzyl]-1H-pyrrolo[3,2-b]pyridine-3-carboxylic acid (1-hydroxymethyl-2-methyl-propyl)-amide]			381	183
Cn1cc(-c2ccc(Cn3cc(C(=O)NCC4(O)CCCC4)c4ncccc43)c(F)c2)cn1 [Example 24, 1-[2-Fluoro-4-(1-methyl-1H-pyrazol-4-yl)-benzyl]-1H-pyrrolo[3,2-b]pyridine-3-carboxylic acid (1-hydroxy-cyclopentylmethyl)-amide]	261	193		
CC[C@H](C)[C@@H](CO)NC(=O)c1cn(Cc2ccc(-c3cnn(C)c3)cc2F)c2cccnc12 [Example 26, 1-[2-Fluoro-4-(1-methyl-1H-pyrazol-4-yl)-benzyl]-1H-pyrrolo[3,2-b]pyridine-3-carboxylic acid ((1S,2S)-1-hydroxymethyl-2-methyl-butyl)-amide]	302	143		

From patent US9932335B2 (priority 2013, dated 2018)
